Numbers after ± are expanded uncertainties.
Assays:
[1] = wn = mass fraction of the nth substance listed; conditions: 323.15 K, 101 kPa, Liquid, Pycnometric method
[2] = refractive index (Na D-line) (dimensionless); wn = mass fraction of the nth substance listed; conditions: 323.15 K, 101 kPa, Liquid, Standard Abbe refractometry

Compound	mass density ([1]; w1 = 0.338)	refractive index ([2]; w1 = 0.338)	mass density ([1]; w1 = 0.5202)	refractive index ([2]; w1 = 0.5202)
O=S(=O)([O-])[O-].[Mg+2] [magnesium sulfate] + O	1387.2 ± 2.1 kg/m3	1.3982 ± 0.0012		
[Br-].[Br-].[Mg+2] [magnesium bromide (MgBr2)] + O			1662.2 ± 9.3 kg/m3	1.462 ± 0.0013
